Data set [1] deals with Human Peripheral Blood Mononuclear Cell (hPBMC). Nature of the data set: Cytokine induction assay (BD Cytometric Bead Array) in hPBMC culture supernatants. To be noted: human PBMCs (n=3) stimulated 48 hours, CBA assay. The format is cell-based. The text has this: The BD™ Cytometric Bead Array (CBA) Human inflammatory Cytokines Kit was used to quantitatively measure Tumor Necrosis Factor (TNF a), Interleukin-6 (IL-6) and Interleukin-1β (IL-1β) protein levels in single samples of Human Peripheral Blood Mononuclear Cell (hPBMC) culture supernatants pretreated with either the adjuvant PHAD or MAV4. The detection reagent provided in the kit was a mixture of phycoerythrin (PE)-conjugated antibodies, which provides a fluorescent signal in proportion to the amount of bound cytokine.
When the capture beads and detector reagent are incubated with an unknown sample containing recognized cytokines, sandwich complexes (capture bead+cytokine+detection reagent) are formed. These complexes are measured using flow cytometry.
To perform the assay lyophilized human inflammatory cytokine standards were reconstituted with assay diluent and serially diluted (standard curve for each protein covers a defined set of concentrations from […]) and test samples were diluted to the desired dilution factor using the assay diluent before mixing all assay tubes with capture beads (50 μl) and PE detection reagent (50 μl). […] Samples were then analyzed by flow cytometry and data was analyzed using FCAP Array Software. […]

Data set [2] in a line: Reverse phase HPLC analysis of adjuvant co-melted with 1-monopalmitoyl glycerol (thermostability). The format is physicochemical. How it is done: Reverse phase HPLC analysis of PHAD and MAV4 co-melted with 1-monopalmitoyl glycerol at the inverted melt method temperature (Example 4) was used to evaluate the thermostability or thermolability of the two adjuvants under these thermal conditions. In the procedure, the samples were prepared as follows, in isopropanol (IPA) using 1.5 ml autoinjection vials as duplicates: PHAD: 20 μg PHAD+180 μg 1-monopalmitoyl glycerol (1:9 wt ratio); MAV4: 10 μg+90 μg 1-monopalmitoyl glycerol (1:9 wt ratio).
The samples were lyophilized overnight. The dried samples were melted for six minutes at 120° C. and 140° C. Each sample was then dissolved in IPA to give a concentration of 0.1 μg/μl for an HPLC load of 20 μL.

The record followed here is patent publication US10105440B2, “Synthetic derivatives of MPL and uses thereof” (VARIATION BIOTECHNOLOGIES INC., priority 2011, dated 2018).

Turning to “phosphorylated hexaacyl disaccharide [PHAD]”, the “secretion of TNF-α, IL-1β and IL-6” value in data set [1] is reported as “induced dose-dependent immune responses”. In addition, the “Area Under the Curve (AUC) of the HPLC peak” value in data set [2] (co-melted with 1-monopalmitoyl glycerol (1:9 wt), melted six minutes at 140° C. versus 120° C.) is reported as “significant decrease”. The “minor peaks (degradation) in the chromatogram” value in data set [2] (co-melted with 1-monopalmitoyl glycerol, melted at 120° C. and 140° C.) is listed as “No minor peaks were observed”.
